# Laboratory results from publication PMC8464955, “Prediction of Drug–Drug Interaction Potential of Tegoprazan Using Physiologically Based Pharmacokinetic Modeling and Simulation” (Pharmaceutics, 2021).
# System: CYP3A4
# Test: Inhibition of tegoprazan metabolism in human liver microsomes by CYP inhibitors
# Assay type: in vitro ADME
# Settings: in-house data
# Source text: The major metabolic pathway of tegoprazan is the liver, and a negligible amount is excreted by urine. Both in vitro and clinical results have elucidated that tegoprazan is a potential substrate of cytochrome P450 (CYP) 3A4. […] According to the label of tegoprazan, systemic exposure to tegoprazan increases when tegoprazan is co-administered with clarithromycin. Based on the in vitro and clinical data, it can be inferred that drug–drug interaction (DDI) between tegoprazan and CYP3A4 inhibitor may occur. However, the clinical DDI studies of tegoprazan conducted so far have been limited to the DDI between tegoprazan and clarithromycin or clarithromycin and amoxicillin, because tegoprazan is likely to be administered with these medications for Helicobacter pylori eradication. Considering the substantial prevalence of acid-related diseases, tegoprazan is likely to be administered in combination with various drugs. […]
# The elimination of the PBPK model consisted of enzyme kinetic and renal clearance (Table 1). Intrinsic clearances (CLint) of tegoprazan by various CYPs were determined by an in vitro study that measured the fraction of CLint inhibited by adding the inhibitors of CYP1A2, CYP2C9, CYP2C19, CYP2D6, and CYP3A to human liver microsomes (in-house data). […]
smiles,measurement,value
CC(=O)N1CCN(c2ccc(OCC3COC(Cn4ccnc4)(c4ccc(Cl)cc4Cl)O3)cc2)CC1 (stereo not shown) [ketoconazole],effect of CYP inhibitor on the metabolism of tegoprazan,significantly inhibited
